Where a name gives a salt, the structure may show the parent alone. Read-outs that look alike come from different tables or passages of the source.
Tests used:
[1] = system: occlusion and reperfusion arrhythmias in anaesthetized dogs; test: Occlusion and reperfusion arrhythmias following acute coronary ligation in anaesthetized dogs; type: in vivo, mongrel dogs; settings: 3 mg/kg i.v.
Description: The method used is essentially in agreement with the method of Vegh et al. [Basic Res. Cardiol. 82, 159-171 (1987)].
Mongrel dogs of both sexes weighing 10 to 20 kg each were anaesthetized by a mixture of chloralose (60 mg/kg) and urethane (200 mg/kg) and the animals were maintained on artificial respiration. After opening the chest, the ramus descendens anterior (LAD) branch of the left coronary artery of heart was prepared from the first main collateral branch and a loose loop from surgical thread was placed around it. During our experiments, the blood pressure of the animal was measured by using a cannule introduced to the left femoral artery and even the standard ECG parameters by using needle electrodes were continuously registered. The arrhythmias were induced by the occlusion for 25 minutes of a loop placed round the LAD. The survival after lethal arrhythmias and frequency of the arrhythmias were registered. The 28 dogs used in the experiments were divided into three groups. The compound of Example 15 was administered in a dose of 1 mg/kg to 8 animals; d-sotalol was given in a dose of 3 mg/kg to 10 animals by a single intravenous injection 10 minutes before compression of the coronary vessel. The control dogs (10 animals) received 5 ml of physiological saline solution in the same manner as the treated animals.
By using this method it can be stated whether the substance investigated would be effective for protection against arrhythmias following the ligation of the coronary artery.

[2] = system: isolated right ventricular trabecule of dog heart; test: Extracellular electrophysiological measurements: impulse conduction time and effective refractory period; set-up: species or system mongrel dogs; settings: for activation at 30 µM / activation at 10 µM: Canis lupus familiaris; for effect on effective refractory period (in words) / effect on impulse conduction (in words): concentrations of Table 1
Description: Right ventricular trabecules were prepared from the heart of mongrel dogs (weighing 5 to 10 kg each). The surviving heart pieces were placed into an organ bath (37° C.) containing modified Tyrode's nutrient medium and excited by point stimulation with a basal frequency of 1 Hz. Extracellular bipolar platinum electrodes were placed on the surface of the preparations, by means of which the propagation of the superficial potentials were registered; thus, the determination of the time of impulse conduction or the rate of impulse conduction, respectively, and the effective refractory period (ERP) became possible. During our experiments,the frequency of stimulation was temporarily varied from 0.5 Hz up to 3 Hz. The tested compounds were directly added to the organ bath after dilution of the stock solution according to the desired final concentration.

[3] = treatment group; cited from earlier work
[4] = system: arrhythmias following coronary artery occlusion in conscious rats; test: Occlusion arrhythmia following acute coronary artery ligation in conscious rats; type: in vivo, male rats; settings: for Occurrence of arrhythmias: Brady / Occurrence of arrhythmias: Free (no arrhythmia was observed) / Occurrence of arrhythmias: Other / Occurrence of arrhythmias: VF / Occurrence of arrhythmias: VT: first 15 minutes; for Arrhythmia Score: score system from 0 to 6
From the text: The method used is essentially in agreement with the method of Lepran et al. [J. Pharmacol. Methods 9, pp. 219-230 (1983)].
During a previous operation, male rats weighing 340 to 360 g each were fitted with a loose surgical thread loop around the left descending coronary vessel, at about 2 mm from its origin. The ends of the loop thread were led out from the chest under the skin, then the surgical wound was closed. After complete recovery from this previous operation (7 to 8 days) acute myocardial ischaemia was induced by contracting the loose ligation in the conscious, freely moving animals. ECG was continuously registered by using bipolar chest electrodes before the ligation of the coronary artery and during the first 15 minutes of ischaemia. The ratio of survivals was determined and the developed arrhythmias were evaluated according to the Lambeth Convention [Walker et al.: Cardiovasc. Res. 22, 447-455 (1988)]. For evaluation of the arrhythmic episodes a score system was also employed by considering the severity of episodes on the basis of a score system from 0 to 6. Both d-sotalol and the substance of Example 15, respectively, were suspended in 1% methylcellulose and administered orally through a gastric sound at 1 hour before the compression of the coronary vessel. The control animals received a treatment with the same volume, i.e. 5 ml/kg of vehicle.

[5] = system: right ventricular papillary muscle of dogs; test: Intracellular microelectrode technique: action potential parameters, ventricular papillary muscle; set-up: species or system mongrel dogs; settings: for APA (amplitude of the action potential) / APD50 (time of 50% repolarization) / APD90 (time of 90% repolarization) / RP (resting potential) / Recovery Ampl / Recovery Ampl/Plateau / Recovery Plateau / Vmax (maximum rate of depolarization) / difference between the effects of Example 15 and its enantiomers (in words) / Trecovery (recovery time constant of Vmax): 5 μM; for Trecovery (recovery time constant of Vmax): Gy: kinetics of rapid restoration; for effect on duration of the action potential (in words) / effect on Vmax (in words): concentrations of Table 2; for effect on Vmax (in words): rapid recovery kinetics
Description: The method used is essentially in agreement with the method of Papp et al. [J. Cardiovascular Pharmacol. Ther. 1, 287-296 (1996)].
Right ventricular papillary muscle and Purkinje's fibres were prepared from the hearts of mongrel dogs (weighing 5 to 10 kg each). The preparations were placed into an organ bath (37° C.) containing modified Tyrode's nutrient medium. The preparations were excited by a basal frequency of 1 Hz. During the experiments, the frequency of stimulation was varied under broad limits by a computer-guided stimulator. The intracellular action potentials were registered by using glass capillary microelectrodes filled with 3 N potassium chloride solution (standard intracellular microelectrode techniques). The resting potential (RP), the amplitude of the action potential (APA) as well as the duration of the action potential (APD) were measured by using an IBM 386 compatible computer by means of an own-developed software. The compounds under test were directly added into the organ bath after dilution of the stock solutions according to the final concentrations desired. The effects of the compounds were observed after an incubation time of 30 to 40 minutes.

[6] = 1 Hz, read-out: Prolongation (%) of ERP
[7] = 1 Hz, read-out: Prolongation (%) of impulse conduction time
[8] = 3 Hz, read-out: Prolongation (%) of ERP
[9] = 3 Hz, read-out: Prolongation (%) of impulse conduction time

CC(C)NCC(O)c1ccc(NS(C)(=O)=O)cc1 (single isomer, unassigned) [d-Sotalol, d-N-[4-[1-hydroxy-2-(1-methylethylamino)ethyl]phenyl]methanesulfonamide hydrochloride]
Complete survival, animals [1]: 5/10
Complete survival, percent [1]: 50%
ES (extrasystole) ([1]; occlusion): 128 ± 14
VF (ventricular fibrillation), animals ([1]; occlusion): 3/10
VF (ventricular fibrillation), percent ([1]; occlusion): 30%
VT (ventricular tachycardia), animals ([1]; occlusion): 5/10
VT (ventricular tachycardia), percent ([1]; occlusion): 50%
VF (ventricular fibrillation), animals ([1]; reperfusion): 2/7
VF (ventricular fibrillation), percent ([1]; reperfusion): 29%
activation at 30 µM [2, 6]: 12.4%
activation at 30 µM [2, 7]: -4.5 ± 5.1%
activation at 30 µM [2, 8]: 7.1%
activation at 30 µM [2, 9]: -3.7 ± 4.7%
effect on effective refractory period (in words) [2]: showed a considerable effect only on the ERP
mortality in clinical trials (in words) [3]: increase in mortality ascribable to the proarrhythmic effect
antiarrhythmic effect (in words) ([4]; oral administration): proved to be inactive
Survival 15 minutes ([4]; p.o. 25 mg/kg): 2/29
Survival 16 hours ([4]; p.o. 25 mg/kg): 2/29
Occurrence of arrhythmias: Brady ([4]; p.o. 25 mg/kg): 2/29
Occurrence of arrhythmias: Free (no arrhythmia was observed) ([4]; p.o. 25 mg/kg): 0/0
Occurrence of arrhythmias: Other ([4]; p.o. 25 mg/kg): 3/43
Occurrence of arrhythmias: VF ([4]; p.o. 25 mg/kg): 7/100
Occurrence of arrhythmias: VT ([4]; p.o. 25 mg/kg): 7/100
Arrhythmia Score ([4]; p.o. 25 mg/kg): 5.71 ± 0.18
Survival 15 minutes ([4]; p.o. 50 mg/kg): 1/10
Survival 16 hours ([4]; p.o. 50 mg/kg): 0/0
Occurrence of arrhythmias: Brady ([4]; p.o. 50 mg/kg): 1/10
Occurrence of arrhythmias: Free (no arrhythmia was observed) ([4]; p.o. 50 mg/kg): 0/0
Occurrence of arrhythmias: Other ([4]; p.o. 50 mg/kg): 4/40
Occurrence of arrhythmias: VF ([4]; p.o. 50 mg/kg): 1/100
Occurrence of arrhythmias: VT ([4]; p.o. 50 mg/kg): 10/100
Arrhythmia Score ([4]; p.o. 50 mg/kg): 5.90 ± 0.10

Cc1cccc(C)c1OC[C@H](C)N(C)CCc1ccc(NS(C)(=O)=O)cc1 [Example 16, (S)-N-[4-[2-[N-Methyl-N-[2-(2,6-dimethylphenoxy)-1-methylethyl]amino]ethyl]pbenyl]methanesulfonamide hydrochloride]
activation at 10 µM [2, 6]: 10.7%
activation at 10 µM [2, 7]: 26.9%
activation at 10 µM [2, 8]: 14.3%
activation at 10 µM [2, 9]: 39.7%
effect on effective refractory period (in words) [2]: simultaneous prolongation of the effective refractory period (ERP)
effect on impulse conduction (in words) [2]: significantly prolonged the time of impulse conduction in a frequency-dependent manner
APA (amplitude of the action potential) [5]: 105 mV
APD50 (time of 50% repolarization) [5]: 195 ms
APD90 (time of 90% repolarization) [5]: 244 ms
RP (resting potential) [5]: -86 mV
Recovery Ampl [5]: 75.8 V/s
Recovery Ampl/Plateau [5]: 0.39
Recovery Plateau [5]: 196.4 V/s
Vmax (maximum rate of depolarization) [5]: 199 V/s
difference between the effects of Example 15 and its enantiomers (in words) [5]: No essential difference could be observed
Trecovery (recovery time constant of Vmax) [5]: 249.5 ms
effect on duration of the action potential (in words) [5]: simultaneous prolongation of duration of the action potential (APD)
effect on Vmax (in words) [5]: mexiletine-like inhibition of Vmax

Cc1cccc(C)c1OC[C@@H](C)N(C)CCc1ccc(NS(C)(=O)=O)cc1.Cl [Example 17, (R)-N-[4-[2-[N-Methyl-N-[2-(2,6-dimethylphenoxy)-1-methylethyl]amino]ethyl]phenyl]methanesulfonamide hydrochloride]
activation at 10 µM [2, 6]: 12.1%
activation at 10 µM [2, 7]: 32.5%
activation at 10 µM [2, 8]: 17.1%
activation at 10 µM [2, 9]: 35.1%
effect on effective refractory period (in words) [2]: simultaneous prolongation of the effective refractory period (ERP)
effect on impulse conduction (in words) [2]: significantly prolonged the time of impulse conduction in a frequency-dependent manner
APA (amplitude of the action potential) [5]: 106 mV
APD50 (time of 50% repolarization) [5]: 203 ms
APD90 (time of 90% repolarization) [5]: 249 ms
RP (resting potential) [5]: -87 mV
Recovery Ampl [5]: 85.2 V/s
Recovery Ampl/Plateau [5]: 0.52
Recovery Plateau [5]: 173.7 V/s
Vmax (maximum rate of depolarization) [5]: 169 V/s
difference between the effects of Example 15 and its enantiomers (in words) [5]: No essential difference could be observed
Trecovery (recovery time constant of Vmax) [5]: 390.4 ms
effect on duration of the action potential (in words) [5]: simultaneous prolongation of duration of the action potential (APD)
effect on Vmax (in words) [5]: mexiletine-like inhibition of Vmax

— US6265445A, “Antiarrhythmic compounds” (priority 1997, dated 2001)
